Assay results taken from PMC7248098, “Biochemical characterization and inhibition of the alternative oxidase enzyme from the fungal phytopathogen Moniliophthora perniciosa” (Communications Biology, 2020).
“And” between values parts separate entries of the source, which are not always exact repeats. Equal entries are not always repeated.

Legend:
[1] = biological target: membrane-bound rMpAOX (Moniliophthora perniciosa, UniProt A8QJP8); assay: Dose-response assay of inhibitors with membrane-bound, GMP-activated rMpAOX (NADH oxidation); assay type: biochemical
Chain of membrane-bound rMpAOX (A8QJP8 entry or part of it): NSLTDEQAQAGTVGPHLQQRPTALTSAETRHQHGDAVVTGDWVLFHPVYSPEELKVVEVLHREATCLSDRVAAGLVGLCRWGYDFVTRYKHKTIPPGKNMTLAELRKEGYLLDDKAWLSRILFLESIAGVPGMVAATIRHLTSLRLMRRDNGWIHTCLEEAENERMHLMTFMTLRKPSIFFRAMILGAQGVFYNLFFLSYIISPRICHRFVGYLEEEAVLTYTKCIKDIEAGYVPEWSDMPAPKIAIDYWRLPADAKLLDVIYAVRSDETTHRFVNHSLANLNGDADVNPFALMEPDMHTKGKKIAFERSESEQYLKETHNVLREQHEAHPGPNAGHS
Protocol: E. coli membrane preparation was performed as described with minor modifications. […] The cells were disrupted using two passes at […] through a pre-cooled Constant cell disruption system (Constant Systems Ltd). The lysate was centrifuged for 15 min at 16,000 rcf, and the pelleted unbroken cells and large cell debris were discarded. The supernatant was centrifuged for 90 min at 200,000 rcf to collect the fragmented membranes.
(§1) Respiration rates were recorded before and after the addition of putative AOX activators, such as 5′-ADP, 5′-AMP, 5′-GDP, 5′-GMP, glyoxylate, oxaloacetate, pyruvate or succinate (1 mM each unless stated otherwise). […] Data were acquired with the Multiskan FC Microplate Photometer (ThermoFisher). […] Absorbance readings were taken periodically and a blank reactions (substrate without enzyme) were included in every assay and were used to determine and subtract the autoxidation rate (background). Proteoliposomes were assayed as described for the E. coli membrane fraction except that no KCN was included and 0.5 µL of the prep (~50 ng rMpAOX) were added into the reaction. When tested, inhibitors were preincubated with the enzyme in reaction buffer for 2–5 min before starting the reaction by the addition of substrate. The path length (i.e., the height of the reaction medium inside the well) was calculated based on the reaction volume and the well cross-section area informed by the supplier. GraphPad Prism 7.0 (GraphPad Software Inc.) was used for function fitting.

[2] = tested on: TAO incorporated into PLs; design: method as in PMID 29133414; details: cited from earlier work
[3] = biological target: rMpAOX incorporated into proteoliposomes (Moniliophthora perniciosa, UniProt A8QJP8); assay: rMpAOX incorporated into proteoliposomes with Q10 and NDH-2 (NADH oxidation); assay type: biochemical
Chain of rMpAOX incorporated into proteoliposomes (A8QJP8 entry or part of it): as above
Protocol: Proteoliposomes (PL) were prepared as previously described[44],[45], except that NDH-2 was used instead of complex I and 0.5% DDM was used instead of OG. […] For kinetic studies, PLs were prepared with 50 µg rMpAOX and no NDH-2—in this case, pure NDH-2 was added directly into the enzymatic reaction mixture at a saturating concentration. Briefly, lipids and Q10 stocks in chloroform were mixed in a glass vial and the chloroform dried under a nitrogen stream. The lipids were hydrated and extruded through a 100 nm NanoSizer MINI Liposome Extruder (T&T Scientific) followed by the addition of protein. After treatment with the Bio-Beads SM-2 Resin (Bio-Rad), proteolipososmes were harvested by ultracentrifugation and resuspended in 150 µL of buffer. Enzymatic assays were performed on the same day.
as §1

[4] = biological target: purified rMpAOX (Moniliophthora perniciosa, UniProt A8QJP8); assay: Purified (detergent-solubilised) rMpAOX, Q1H2 oxidation; assay type: biochemical
Chain of purified rMpAOX (A8QJP8 entry or part of it): as above
Protocol: The E. coli membrane fraction was resuspended with 50 mM Tris-HCl pH 7.5, 20% glycerol, 200 mM MgSO4 and 1% Fos-Choline-12 (FC-12) instead of MOPS buffer. The sample was left under gentle rocking for 1 h at 4 °C, after which it was centrifuged at 200,000 rcf for 30 min. […] T. Elthon, Nebraska, USA. Protein content was estimated through the Bradford method[63] and bovine serum albumin as standard.
as §1

[5] = tested on: membrane-bound TAO; design: method as in PMID 23180806; details: cited from earlier work
[6] = tested on: solubilised TAO; design: method as in PMID 29107420; details: cited from earlier work
[7] = tested on: M. perniciosa; design: method as in PMID 22443281, PMID 30350447; details: cited from earlier work

With CC(C)=CCC/C(C)=C/Cc1c(O)c(Cl)c(C)c(C=O)c1O [CB, colletochlorin B] the “Fractional velocity, %” value ([1]; log[I], M -4.60206 (Fig2b), 25 µM) was 2.536% and 2.662% and 8.437%, the “Fractional velocity, %” value ([1]; log[I], M -5.60206 (Fig2b), 2.5 µM) was 2.977% and 3.203% and 8.094% and the “Fractional velocity, %” value ([1]; log[I], M -6.60206 (Fig2b), 0.25 µM) was 4.262% and 7.7642% and 10.3237%. The “Fractional velocity, %” value ([1]; log[I], M -8.60206 (Fig2b), 0.0025 µM) was 76.0268% and 98.1726% and 76.3221%, the “Fractional velocity, %” value ([1]; log[I], M -9.60206 (Fig2b), 0.00025 µM) was 96.6921% and 90.9449% and the activity at 0.00025 µM ([1]; log[I], M -9.60206 (Fig2b), read-out: Fractional velocity, %) was 96.2%. For the same compound, the “Fractional velocity, %” value ([1]; log[I], M -10.6021 (Fig2b), 25 pM) was 95.8052% and 91.68%, the activity at 25 pM ([1]; log[I], M -10.6021 (Fig2b), read-out: Fractional velocity, %) was 92% and the IC50 ([1]; membrane-bound, GMP-activated rMpAOX, read-out: IC50) was 14.8 nM. For the same compound, the “CB-to-enzyme ratio at the IC50 concentration” value [2] was 1.4, the “Fractional velocity, %” value ([3]; log[CB], M -4.60206 (Fig4b), 25 µM) was 2.151% and the activity at 25 µM ([3]; log[CB], M -4.60206 (Fig4b), read-out: Fractional velocity, %) was 2.86%. The “Fractional velocity, %” value ([3]; log[CB], M -5.60206 (Fig4b), 2.5 µM) was 4.07%, the activity at 2.5 µM ([3]; log[CB], M -5.60206 (Fig4b), read-out: Fractional velocity, %) was 3.2% and the “Fractional velocity, %” value ([3]; log[CB], M -6.60206 (Fig4b), 0.25 µM) was 11.8798%. For the same compound, the activity at 0.25 µM ([3]; log[CB], M -6.60206 (Fig4b), read-out: Fractional velocity, %) was 11.1%, the “Fractional velocity, %” value ([3]; log[CB], M -7.60206 (Fig4b), 0.025 µM) was 47.093% and the activity at 0.025 µM ([3]; log[CB], M -7.60206 (Fig4b), read-out: Fractional velocity, %) was 46.1%. For the same compound, the “Fractional velocity, %” value ([3]; log[CB], M -8.60206 (Fig4b), 0.0025 µM) was 86.8217%, the activity at 0.0025 µM ([3]; log[CB], M -8.60206 (Fig4b), read-out: Fractional velocity, %) was 74.5% and the “Fractional velocity, %” value ([3]; log[CB], M -9.60206 (Fig4b), 0.00025 µM) was 97.2868%. The activity at 0.00025 µM ([3]; log[CB], M -9.60206 (Fig4b), read-out: Fractional velocity, %) was 99.3%, the “Fractional velocity, %” value ([3]; log[CB], M -10.6021 (Fig4b), 25 pM) was 98.4496% and the activity at 25 pM ([3]; log[CB], M -10.6021 (Fig4b), read-out: Fractional velocity, %) was 98.7%. The activity at 2.5 pM ([3]; log[CB], M -11.6021 (Fig4b), read-out: Fractional velocity, %) was 100%, the IC50 ([3]; proteoliposomes with rMpAOX, Q10 and NDH-2) was 19.5 nM and the Ki ([4]; Morrison equation for tight-binders, read-out: KIapp) was 13.9 nM. For the same compound, the activity at 2.5 pM ([4]; [I], M 2.5e-12, read-out: Dose-response assay with CB, (Fig3d)) was 99.5%, the activity at 10 pM ([4]; [I], M 1e-11, read-out: Dose-response assay with CB, Fig3d) was 98% and the activity at 25 pM ([4]; [I], M 2.5e-11, read-out: Dose-response assay with CB, (Fig3d)) was 99%. It also gave an activity at 0.0001 µM ([4]; [I], M 1e-10, read-out: Dose-response assay with CB, Fig3d) of 100%, an activity at 0.00025 µM ([4]; [I], M 2.5e-10, read-out: Dose-response assay with CB, (Fig3d)) of 99.7% and an activity at 0.001 µM ([4]; [I], M 1e-9, read-out: Dose-response assay with CB, Fig3d) of 96.8%. The activity at 0.0025 µM ([4]; [I], M 2.5e-9, read-out: Dose-response assay with CB, (Fig3d)) was 94.6%, the activity at 0.01 µM ([4]; [I], M 1e-8, read-out: Dose-response assay with CB, Fig3d) was 79.3% and the activity at 0.025 µM ([4]; [I], M 2.5e-8, read-out: Dose-response assay with CB, (Fig3d)) was 69.2%. For the same compound, the activity at 0.1 µM ([4]; [I], M 1e-7, read-out: Dose-response assay with CB, Fig3d) was 36.9%, the activity at 0.25 µM ([4]; [I], M 2.5e-7, read-out: Dose-response assay with CB, (Fig3d)) was 22.7% and the activity at 1 µM ([4]; [I], M 1e-6, read-out: Dose-response assay with CB, Fig3d) was 8.98%. The activity at 2.5 µM ([4]; [I], M 2.5e-6, read-out: Dose-response assay with CB, (Fig3d)) was 10.4%, the activity at 10 µM ([4]; [I], M 1e-5, read-out: Dose-response assay with CB, Fig3d) was 2.99% and the activity at 25 µM ([4]; [I], M 2.5e-5, read-out: Dose-response assay with CB, (Fig3d)) was 0%. The activity at 100 µM ([4]; [I], M 0.0001, read-out: Dose-response assay with CB, Fig3d) was 3.34%, the “CB-to-rMpAOX ratio at the IC50 concentration” value ([4]; enzyme 49.1 nM) was 1.2 and the IC50 ([4]; purified rMpAOX, enzyme 49.1 nM) was 59.3 nM. The IC50 [5] was 0.2 nM and the “CB-to-enzyme ratio at the IC50 concentration” value [6] was 1.3.

For CCCOC(=O)c1cc(O)c(O)c(O)c1 [n-propyl gallate], the “Concentrations that inhibit M. perniciosa growth” value [7] is given as “millimolar concentrations”.
